Experimental findings from ChEMBL document CHEMBL3991601, “The target landscape of clinical kinase drugs” (Science, 2017) are described below.

Calls of active or inactive are those of the source. Cut-off read from the data, not from the text of the source, for most assays here: actives have a measured Kd and inactives only a lower limit.

The target of one experiment is Focal adhesion kinase 1 (Homo sapiens, UniProt Q05397).
For experiment [1], the target named is Serine/threonine-protein kinase PAK 4 (Homo sapiens, UniProt O96013).
For experiment [2], the target named is Epidermal growth factor receptor (Homo sapiens, UniProt P00533).
Experiment [3] deals with Tyrosine-protein kinase Yes (Homo sapiens, UniProt P07947).
The target of experiment [4] is Mitogen-activated protein kinase 10 (Homo sapiens, UniProt P53779).
Experiment [5] addresses Serine/threonine-protein kinase/endoribonuclease IRE2 (Homo sapiens, UniProt Q76MJ5).
Experiment [6] deals with Mitogen-activated protein kinase kinase kinase 20 (Homo sapiens, UniProt Q9NYL2).
The next experiment concerns the target Ephrin type-A receptor 7 (Homo sapiens, UniProt Q15375).
Experiment [7] addresses Casein kinase II subunit alpha' (Homo sapiens, UniProt P19784).
For experiment [8], the target named is T1, Probable ATP-dependent RNA helicase DDX6 (Homo sapiens, UniProt P26196).
T1 sequence (P26196 whole entry): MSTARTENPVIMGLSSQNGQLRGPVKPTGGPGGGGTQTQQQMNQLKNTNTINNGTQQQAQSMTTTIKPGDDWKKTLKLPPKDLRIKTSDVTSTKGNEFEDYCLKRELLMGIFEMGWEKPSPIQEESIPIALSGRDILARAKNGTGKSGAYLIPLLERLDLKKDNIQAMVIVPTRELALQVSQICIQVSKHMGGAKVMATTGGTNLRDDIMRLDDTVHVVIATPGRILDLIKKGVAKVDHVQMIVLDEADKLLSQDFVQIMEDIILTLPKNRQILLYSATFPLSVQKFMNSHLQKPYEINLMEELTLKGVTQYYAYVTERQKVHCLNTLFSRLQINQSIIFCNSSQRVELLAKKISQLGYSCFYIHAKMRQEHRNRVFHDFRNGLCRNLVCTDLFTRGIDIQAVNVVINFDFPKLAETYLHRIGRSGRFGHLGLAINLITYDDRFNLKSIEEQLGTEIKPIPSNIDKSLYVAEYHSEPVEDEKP

The target in experiment [9] is Casein kinase I isoform delta (Homo sapiens, UniProt P48730).
In experiment [10] the target is T2, Membrane-associated tyrosine- and threonine-specific cdc2-inhibitory kinase (Homo sapiens, UniProt Q99640).
T2 sequence (Q99640 whole entry): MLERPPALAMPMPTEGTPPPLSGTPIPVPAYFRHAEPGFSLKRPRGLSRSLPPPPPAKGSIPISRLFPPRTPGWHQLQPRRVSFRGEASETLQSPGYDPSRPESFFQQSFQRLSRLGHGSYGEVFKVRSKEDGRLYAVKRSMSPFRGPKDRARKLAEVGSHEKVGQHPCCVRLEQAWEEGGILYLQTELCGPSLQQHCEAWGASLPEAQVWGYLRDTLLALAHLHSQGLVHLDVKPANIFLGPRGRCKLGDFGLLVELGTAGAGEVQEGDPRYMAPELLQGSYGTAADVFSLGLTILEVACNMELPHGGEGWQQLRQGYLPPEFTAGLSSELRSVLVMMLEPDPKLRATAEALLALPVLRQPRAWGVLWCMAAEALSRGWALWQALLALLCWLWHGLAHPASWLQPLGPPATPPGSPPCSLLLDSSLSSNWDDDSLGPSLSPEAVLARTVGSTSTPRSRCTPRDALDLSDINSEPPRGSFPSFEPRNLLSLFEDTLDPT

Experiment [11] concerns the target T3, Serine/threonine-protein kinase TBK1 (Homo sapiens, UniProt Q9UHD2).
T3 sequence (Q9UHD2 whole entry): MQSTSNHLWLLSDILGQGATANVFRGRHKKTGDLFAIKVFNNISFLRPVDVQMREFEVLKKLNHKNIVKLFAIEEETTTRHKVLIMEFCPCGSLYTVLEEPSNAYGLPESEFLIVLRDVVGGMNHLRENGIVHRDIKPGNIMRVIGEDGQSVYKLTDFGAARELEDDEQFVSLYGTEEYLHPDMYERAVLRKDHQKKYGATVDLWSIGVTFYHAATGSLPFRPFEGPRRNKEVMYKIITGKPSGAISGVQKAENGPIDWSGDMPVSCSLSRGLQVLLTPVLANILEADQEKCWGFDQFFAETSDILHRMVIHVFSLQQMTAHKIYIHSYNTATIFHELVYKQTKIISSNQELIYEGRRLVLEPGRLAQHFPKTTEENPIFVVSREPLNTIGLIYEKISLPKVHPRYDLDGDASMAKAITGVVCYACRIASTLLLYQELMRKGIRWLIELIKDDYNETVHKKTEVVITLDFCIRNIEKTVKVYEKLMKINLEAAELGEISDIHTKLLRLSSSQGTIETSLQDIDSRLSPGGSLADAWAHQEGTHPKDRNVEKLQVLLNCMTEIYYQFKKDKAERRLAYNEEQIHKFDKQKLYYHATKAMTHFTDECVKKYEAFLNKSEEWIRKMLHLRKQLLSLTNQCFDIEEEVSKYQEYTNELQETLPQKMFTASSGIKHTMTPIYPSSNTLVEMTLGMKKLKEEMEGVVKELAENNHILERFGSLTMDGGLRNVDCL
Note: in the data inactive means no Kd found up to 30 µM.

Focal adhesion kinase 1, sequence (Q05397 whole entry): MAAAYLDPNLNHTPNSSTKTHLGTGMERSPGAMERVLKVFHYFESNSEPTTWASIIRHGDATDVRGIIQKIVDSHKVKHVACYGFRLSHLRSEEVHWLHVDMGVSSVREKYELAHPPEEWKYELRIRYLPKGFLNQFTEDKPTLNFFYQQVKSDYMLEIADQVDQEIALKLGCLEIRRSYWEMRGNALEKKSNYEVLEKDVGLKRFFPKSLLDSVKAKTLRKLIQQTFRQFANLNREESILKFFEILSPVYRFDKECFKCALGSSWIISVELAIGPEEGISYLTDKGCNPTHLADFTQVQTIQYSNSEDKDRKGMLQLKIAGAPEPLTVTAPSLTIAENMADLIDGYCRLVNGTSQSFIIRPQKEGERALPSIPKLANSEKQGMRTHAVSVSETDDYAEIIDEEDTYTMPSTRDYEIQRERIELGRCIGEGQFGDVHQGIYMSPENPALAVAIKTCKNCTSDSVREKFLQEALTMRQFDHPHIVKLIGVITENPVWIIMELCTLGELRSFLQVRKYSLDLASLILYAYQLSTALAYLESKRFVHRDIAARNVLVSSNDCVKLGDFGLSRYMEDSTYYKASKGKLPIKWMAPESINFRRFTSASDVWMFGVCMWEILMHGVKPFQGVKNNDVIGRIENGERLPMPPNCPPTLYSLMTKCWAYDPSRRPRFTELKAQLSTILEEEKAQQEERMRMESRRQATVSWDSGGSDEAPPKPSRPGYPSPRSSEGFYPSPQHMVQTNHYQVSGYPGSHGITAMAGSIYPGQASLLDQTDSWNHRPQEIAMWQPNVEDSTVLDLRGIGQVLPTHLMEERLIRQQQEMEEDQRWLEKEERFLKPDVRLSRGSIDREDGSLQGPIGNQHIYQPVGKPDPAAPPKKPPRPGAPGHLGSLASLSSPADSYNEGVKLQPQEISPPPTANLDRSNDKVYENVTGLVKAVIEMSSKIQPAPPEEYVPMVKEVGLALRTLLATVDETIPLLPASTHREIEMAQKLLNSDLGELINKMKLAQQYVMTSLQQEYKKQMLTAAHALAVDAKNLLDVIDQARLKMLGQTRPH
Tyrosine-protein kinase Yes, sequence (P07947 whole entry): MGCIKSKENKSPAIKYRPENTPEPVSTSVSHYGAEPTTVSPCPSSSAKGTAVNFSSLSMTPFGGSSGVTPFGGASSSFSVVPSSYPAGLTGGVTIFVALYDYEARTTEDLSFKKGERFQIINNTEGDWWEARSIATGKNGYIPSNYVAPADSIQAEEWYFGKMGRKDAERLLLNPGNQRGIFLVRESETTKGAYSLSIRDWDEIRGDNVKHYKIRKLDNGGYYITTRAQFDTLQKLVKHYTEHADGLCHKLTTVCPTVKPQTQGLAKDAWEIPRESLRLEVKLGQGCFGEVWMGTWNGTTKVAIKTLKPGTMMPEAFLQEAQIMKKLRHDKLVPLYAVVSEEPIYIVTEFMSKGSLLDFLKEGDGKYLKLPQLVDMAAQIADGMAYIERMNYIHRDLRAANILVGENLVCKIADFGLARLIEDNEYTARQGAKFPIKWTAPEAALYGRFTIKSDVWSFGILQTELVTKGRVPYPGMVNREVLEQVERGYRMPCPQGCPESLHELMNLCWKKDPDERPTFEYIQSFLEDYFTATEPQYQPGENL
Mitogen-activated protein kinase kinase kinase 20, sequence (Q9NYL2 whole entry): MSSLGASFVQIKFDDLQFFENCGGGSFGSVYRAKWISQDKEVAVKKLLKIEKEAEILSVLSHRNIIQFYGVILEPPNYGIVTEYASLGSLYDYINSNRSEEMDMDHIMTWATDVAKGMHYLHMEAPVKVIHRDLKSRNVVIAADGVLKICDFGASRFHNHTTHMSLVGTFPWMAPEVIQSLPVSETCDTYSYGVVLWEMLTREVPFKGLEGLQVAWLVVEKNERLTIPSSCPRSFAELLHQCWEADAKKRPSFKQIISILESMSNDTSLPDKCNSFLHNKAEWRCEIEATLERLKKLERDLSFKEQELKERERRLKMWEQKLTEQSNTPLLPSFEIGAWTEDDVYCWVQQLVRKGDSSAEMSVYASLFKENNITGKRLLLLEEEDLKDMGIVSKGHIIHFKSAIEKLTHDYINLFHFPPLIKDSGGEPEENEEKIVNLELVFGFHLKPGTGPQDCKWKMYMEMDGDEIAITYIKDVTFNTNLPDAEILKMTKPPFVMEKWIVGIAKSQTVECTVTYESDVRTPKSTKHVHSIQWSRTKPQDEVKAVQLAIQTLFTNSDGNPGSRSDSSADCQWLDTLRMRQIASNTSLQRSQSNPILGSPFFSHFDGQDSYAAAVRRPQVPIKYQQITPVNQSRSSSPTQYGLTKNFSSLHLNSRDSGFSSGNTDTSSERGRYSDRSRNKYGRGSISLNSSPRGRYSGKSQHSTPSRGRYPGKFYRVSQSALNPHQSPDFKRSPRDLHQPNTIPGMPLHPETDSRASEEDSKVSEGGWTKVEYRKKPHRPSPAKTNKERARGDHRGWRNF
Ephrin type-A receptor 7, sequence (Q15375 whole entry): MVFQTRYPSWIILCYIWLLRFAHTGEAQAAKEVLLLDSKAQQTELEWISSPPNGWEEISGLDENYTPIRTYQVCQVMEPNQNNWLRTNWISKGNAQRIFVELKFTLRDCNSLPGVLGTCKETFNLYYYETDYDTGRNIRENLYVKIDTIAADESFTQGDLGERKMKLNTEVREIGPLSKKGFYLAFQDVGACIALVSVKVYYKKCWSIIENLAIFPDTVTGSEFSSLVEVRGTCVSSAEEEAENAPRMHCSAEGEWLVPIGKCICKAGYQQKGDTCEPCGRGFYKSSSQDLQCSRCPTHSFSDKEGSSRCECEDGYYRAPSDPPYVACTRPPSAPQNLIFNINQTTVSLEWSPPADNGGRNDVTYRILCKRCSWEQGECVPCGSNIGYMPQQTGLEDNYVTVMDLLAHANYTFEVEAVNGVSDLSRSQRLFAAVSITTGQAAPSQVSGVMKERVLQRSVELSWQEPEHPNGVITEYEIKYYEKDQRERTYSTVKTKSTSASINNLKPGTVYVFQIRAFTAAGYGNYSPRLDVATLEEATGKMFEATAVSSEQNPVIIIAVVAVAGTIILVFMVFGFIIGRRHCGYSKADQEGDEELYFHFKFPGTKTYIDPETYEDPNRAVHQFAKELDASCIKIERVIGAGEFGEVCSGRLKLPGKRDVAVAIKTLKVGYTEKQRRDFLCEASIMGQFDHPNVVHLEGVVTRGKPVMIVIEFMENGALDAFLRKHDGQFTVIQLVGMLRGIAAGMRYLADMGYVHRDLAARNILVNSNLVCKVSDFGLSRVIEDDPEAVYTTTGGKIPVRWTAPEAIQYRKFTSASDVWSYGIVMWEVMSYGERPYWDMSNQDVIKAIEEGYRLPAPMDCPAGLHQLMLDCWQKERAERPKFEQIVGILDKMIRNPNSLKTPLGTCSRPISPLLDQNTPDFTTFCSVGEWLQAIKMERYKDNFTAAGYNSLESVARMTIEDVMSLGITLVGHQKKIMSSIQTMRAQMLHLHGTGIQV
Serine/threonine-protein kinase/endoribonuclease IRE2, sequence (Q76MJ5 whole entry): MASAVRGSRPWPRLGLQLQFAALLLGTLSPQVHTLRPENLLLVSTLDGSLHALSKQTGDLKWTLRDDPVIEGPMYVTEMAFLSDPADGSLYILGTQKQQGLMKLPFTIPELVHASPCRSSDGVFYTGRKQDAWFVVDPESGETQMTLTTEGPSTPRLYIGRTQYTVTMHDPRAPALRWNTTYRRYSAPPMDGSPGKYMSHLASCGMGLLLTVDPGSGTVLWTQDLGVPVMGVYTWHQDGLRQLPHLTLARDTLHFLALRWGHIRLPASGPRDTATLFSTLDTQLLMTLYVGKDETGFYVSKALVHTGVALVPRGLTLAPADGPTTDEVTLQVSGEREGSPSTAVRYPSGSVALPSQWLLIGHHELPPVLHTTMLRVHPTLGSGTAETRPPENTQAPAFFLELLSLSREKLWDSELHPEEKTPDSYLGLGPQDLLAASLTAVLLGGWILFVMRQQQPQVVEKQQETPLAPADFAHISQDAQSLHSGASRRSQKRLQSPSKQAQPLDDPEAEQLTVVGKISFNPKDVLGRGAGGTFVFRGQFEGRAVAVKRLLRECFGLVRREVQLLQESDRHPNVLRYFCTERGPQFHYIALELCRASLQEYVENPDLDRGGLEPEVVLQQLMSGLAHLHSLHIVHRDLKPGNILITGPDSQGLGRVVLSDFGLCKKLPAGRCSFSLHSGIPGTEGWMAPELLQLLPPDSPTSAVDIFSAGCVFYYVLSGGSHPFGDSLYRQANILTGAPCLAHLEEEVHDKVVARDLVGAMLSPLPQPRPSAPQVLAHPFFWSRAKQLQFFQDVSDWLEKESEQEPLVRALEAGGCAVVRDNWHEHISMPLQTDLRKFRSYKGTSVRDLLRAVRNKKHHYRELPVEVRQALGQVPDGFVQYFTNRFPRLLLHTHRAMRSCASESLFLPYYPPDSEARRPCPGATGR
Casein kinase II subunit alpha', sequence (P19784 whole entry): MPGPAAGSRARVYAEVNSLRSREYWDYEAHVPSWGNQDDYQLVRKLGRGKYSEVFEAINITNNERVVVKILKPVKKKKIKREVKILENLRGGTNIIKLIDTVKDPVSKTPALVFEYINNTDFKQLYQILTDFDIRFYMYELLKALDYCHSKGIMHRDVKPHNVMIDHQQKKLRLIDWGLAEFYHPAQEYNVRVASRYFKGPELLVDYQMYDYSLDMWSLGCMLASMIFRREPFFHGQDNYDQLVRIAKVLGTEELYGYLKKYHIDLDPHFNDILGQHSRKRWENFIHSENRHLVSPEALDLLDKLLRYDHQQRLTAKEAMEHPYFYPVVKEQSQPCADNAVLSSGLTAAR

Regarding `COc1ccc(S(=O)(=O)N(C(C)=O)c2ccccc2/C=C/c2cc[n+]([O-])cc2)cc1` [HMN-214], the Kd (on Focal adhesion kinase 1; in [1]; in experiment [2]; in experiment [3]; in experiment [4]; in experiment [5]) was > 30 µM (inactive) in each case. Besides, the Kd (in experiment [6]; on Ephrin type-A receptor 7; in [7]; in experiment [8]; in experiment [9]; in experiment [10]) was > 30 µM (inactive) throughout. Also, the Kd – broadly, a measure of binding affinity in units of concentration – in [11] was > 30 µM (inactive).

Consider `O=C(Nc1cc(C(F)(F)F)cc(C(F)(F)F)c1)c1cc(Cl)ccc1O` [IMD-0354], for which the Kd (on Focal adhesion kinase 1; in experiment [1]; in experiment [2]; in experiment [3]; in experiment [4]; in experiment [5]) was > 30 µM (inactive) in each case. For the same compound, the Kd (in experiment [6]; at Ephrin type-A receptor 7; in experiment [7]; in [8]; in experiment [9]; in experiment [10]) was > 30 µM (inactive) throughout. Besides, the Kd in experiment [11] is > 30 µM (inactive).

On to `CNC(=O)c1cccc2cc(Oc3ccnc4cc(OCC5(N)CC5)c(OC)cc34)ccc12` [LUCITANIB], for which the Kd (on Focal adhesion kinase 1; in [1]; in experiment [2]; in [3]; in experiment [4]; in [5]) was > 30 µM (inactive) in each case. The Kd (in experiment [6]; on Ephrin type-A receptor 7; in experiment [7]; in experiment [8]; in experiment [9]; in experiment [10]) was > 30 µM (inactive) each time. Further, in [11], the Kd is > 30 µM (inactive).

As to `NC1(c2ccc(-c3nc4ccn5c(=O)[nH]nc5c4cc3-c3ccccc3)cc2)CCC1` [MK-2206], the Kd (on Focal adhesion kinase 1; in experiment [1]; in experiment [2]; in [3]; in experiment [4]; in experiment [5]) was > 30 µM (inactive) in each case. For the same compound, the Kd (in experiment [6]; on Ephrin type-A receptor 7; in experiment [7]; in [8]; in experiment [9]; in experiment [10]) was > 30 µM (inactive) in each case. In addition, the Kd in experiment [11] was > 30 µM (inactive).

Consider `CN(C[C@@H]1COCCO1)S(=O)(=O)Nc1ccc2ccc3ncc(-c4cnn(C)c4)cc3c(=O)c2c1` [MK-2461], for which the Kd at Focal adhesion kinase 1 was > 30 µM (inactive); in experiment [1], > 30 µM (inactive); in experiment [2] it was > 30 µM (inactive); in [3] it was > 30 µM (inactive); in experiment [4], 4.7 µM (active); in experiment [5], > 30 µM (inactive). In addition, the Kd (in experiment [6]; at Ephrin type-A receptor 7; in experiment [7]; in experiment [8]; in experiment [9]; in experiment [10]) was > 30 µM (inactive) each time. Besides, the Kd in experiment [11] was > 30 µM (inactive).

In the case of `Cn1cc(-c2cnc3ccc4ccc(CS(=O)(=O)NCc5ccccn5)cc4c(=O)c3c2)cn1` [MK-8033], the Kd (at Focal adhesion kinase 1; in experiment [1]; in experiment [2]; in experiment [3]; in [4]; in experiment [5]) was > 30 µM (inactive) throughout. For the same compound, the Kd (in experiment [6]; at Ephrin type-A receptor 7; in [7]; in experiment [8]; in experiment [9]; in [10]) was > 30 µM (inactive) each time. Further, the Kd in [11] is > 30 µM (inactive).

For `FC(F)(F)c1ccc(/C=C/c2nc(COc3ccc(CCCCn4ccnn4)cc3)co2)cc1` [MUBRITINIB], the Kd (at Focal adhesion kinase 1; in [1]; in experiment [2]; in [3]; in experiment [4]; in [5]) was > 30 µM (inactive) in each case. Moreover, the Kd (in experiment [6]; at Ephrin type-A receptor 7; in experiment [7]; in experiment [8]; in experiment [9]; in experiment [10]) was > 30 µM (inactive) throughout. In addition, in [11], the Kd is > 30 µM (inactive).

For the compound `COc1ncc(-c2ccc3nccc(-c4ccnnc4)c3c2)cc1NS(=O)(=O)c1ccc(F)cc1F` [OMIPALISIB], the Kd (on Focal adhesion kinase 1; in experiment [1]; in experiment [2]; in experiment [3]; in experiment [4]; in experiment [5]) was > 30 µM (inactive) throughout. The Kd (in [6]; on Ephrin type-A receptor 7; in [7]; in experiment [8]; in [9]; in experiment [10]) was > 30 µM (inactive) each time. Besides, the Kd in [11] was > 30 µM (inactive).

On to `CCCCCCCCCCCCCCCCCCOP(=O)([O-])OC1CC[N+](C)(C)CC1` [PERIFOSINE], for which the Kd (at Focal adhesion kinase 1; in [1]; in experiment [2]; in experiment [3]; in [4]; in experiment [5]) was > 30 µM (inactive) each time. Further, the Kd (in experiment [6]; on Ephrin type-A receptor 7; in experiment [7]; in experiment [8]; in [9]; in [10]) was > 30 µM (inactive) each time. In experiment [11], the Kd is > 30 µM (inactive).

For `Cc1cnc(NC(=O)Nc2cc(Br)c(C)cc2OC[C@@H]2CNCCO2)cn1` [RABUSERTIB], the Kd (on Focal adhesion kinase 1; in [1]; in [2]; in [3]; in [4]; in experiment [5]) was > 30 µM (inactive) each time. Moreover, the Kd (in experiment [6]; on Ephrin type-A receptor 7; in [7]; in [8]; in experiment [9]; in experiment [10]) was > 30 µM (inactive) throughout. The Kd in [11] is > 30 µM (inactive).
